From patent publication US6673749B1, “Use of phyllocladane diterpenoids for plant growth promotion and alleviation of growth retardant allelochemicals, and method therefor” (Council of Scientific and Industrial Research, priority 2002, dated 2004)

Columns and labels:
Test in all cases: Seed germination and seedling shoot/root growth test in petridishes
Format in all cases: in vivo
Hordeum vulgare = details: control = 100%
Description: (§1) As noted above the activity of phyllocladane diterpenoids used in the practice of this invention was observed when these compounds were tested for their effects on seed germination, root and shoot growth of certain plant species and their antagonistic effect on plant growth retardants by the method described by Bagchi G. D. et al Phytochemistry, 45(6)1131-1133, 1997.
(§2) Plant growth promoting activity of calliterpenone, calliterpenone monoacetate, and calliterpenone di-acetate was examined at 0.1, 0.01 and 0.001 μM concentrations. The tests were conducted against seeds of two monocotyledonous (Hordeum vulgare and Triticum aestivum) and two dicotyledonous plants (Vigna radiata and Trigonella foenum-graecum). Control seeds were germinated in distilled water and all the observations were compared with […]. The root and shoot growth of all the plant species were affected by the phyllocladane diterpenoids, although the extent of effect varied considerably in the plant species with the chemicals and their concentrations. […] Details of the procedure adopted and results obtained are discussed in the various examples.
(§3) 100 ml stalk solutions of 0.1 μM concentration were prepared by dissolving required amounts of various test compounds (depending upon their molecular weights) in minimum amount of ethanol or acetone and adding distilled water. From this stalk solution, 0.01 μM and 0.001 μM concentrations were prepared. Calliterpenone and calliterpenone di acetate was dissolved in 2.0 ml absolute ethanol (Merc), while; calliterpenone monoacetate, isopropylideno calliterpenone and trihydroxy calliterpenone were dissolved in 2.0 ml spectral grade acetone (Ranbaxy). The respective control test solutions of distilled water of each concentration also contained equal amount of absolute ethanol or acetone. For an assay, 10 seeds were placed on Whatman filter paper (moistened with 5.0 ml of test solution in a 9.0 cm diameter petridish (in triplicate). The pteridishes were incubated for 9 days in a germinator, maintained at 25.0±1.0° C. with 90% humidity and 4 hr light/day. At the end of incubation, observations were recorded on the seedlings in terms of germination, shoot and root growth. The data on the length of shoot and root of seedlings and number of seeds germinated in different concentrations of compounds were compared with the control, which was taken as 100%. The data thus obtained were presented in Table-1.
(§4) Root growth of seedlings was measured in the similar way as shoot growth from the experiment as described in Example 1.
(§5) Effect of test compounds on germination was observed from the same experiment as described in Example 1.

[1] = system: Trigonella foenum-graecum; details: Trigonella foenum graecum, control = 100%
Description: as §1, §2, §3, §4, §5

Triticum aestivum = details: control = 100%
Description: as §1, §2, §3, §4, §5

Vigna radiata = details: Vigna radiata, control = 100%
Description: as §1, §2, §3, §4, §5

Row | SMILES | Percent (%) germination of seeds in relation to control on 9th day after sowing (Hordeum vulgare; 0.001 μM) [%] | Percent (%) root growth of seedlings in relation to control on 9th day after sowing (Hordeum vulgare; 0.001 μM) [%] | Percent (%) shoot growth of seedlings in relation to control on 9th day after sowing (Hordeum vulgare; 0.001 μM) [%] | Percent (%) germination of seeds in relation to control on 9th day after sowing (Hordeum vulgare; 0.01 μM) [%] | Percent (%) root growth of seedlings in relation to control on 9th day after sowing (Hordeum vulgare; 0.01 μM) [%] | Percent (%) shoot growth of seedlings in relation to control on 9th day after sowing (Hordeum vulgare; 0.01 μM) [%] | Percent (%) germination of seeds in relation to control on 9th day after sowing (Hordeum vulgare; 0.1 μM) [%] | Percent (%) root growth of seedlings in relation to control on 9th day after sowing (Hordeum vulgare; 0.1 μM) [%] | Percent (%) shoot growth of seedlings in relation to control on 9th day after sowing (Hordeum vulgare; 0.1 μM) [%] | Percent (%) germination of seeds in relation to control on 9th day after sowing ([1]; 0.001 μM) [%] | Percent (%) root growth of seedlings in relation to control on 9th day after sowing ([1]; 0.001 μM) [%] | Percent (%) shoot growth of seedlings in relation to control on 9th day after sowing ([1]; 0.001 μM) [%] | Percent (%) germination of seeds in relation to control on 9th day after sowing ([1]; 0.01 μM) [%] | Percent (%) root growth of seedlings in relation to control on 9th day after sowing ([1]; 0.01 μM) [%] | Percent (%) shoot growth of seedlings in relation to control on 9th day after sowing ([1]; 0.01 μM) [%] | Percent (%) germination of seeds in relation to control on 9th day after sowing ([1]; 0.1 μM) [%] | Percent (%) root growth of seedlings in relation to control on 9th day after sowing ([1]; 0.1 μM) [%] | Percent (%) shoot growth of seedlings in relation to control on 9th day after sowing ([1]; 0.1 μM) [%] | Percent (%) germination of seeds in relation to control on 9th day after sowing (Triticum aestivum; 0.001 μM) [%] | Percent (%) root growth of seedlings in relation to control on 9th day after sowing (Triticum aestivum; 0.001 μM) [%] | other results
1 | CC(=O)OCC1(OC(C)=O)CC23CCC4C(C)(C)C(=O)CCC4(C)C2CCC1C3 (stereo not drawn) [Calliterpenone Diacetate, calliterpenone diacetate] | 100 | 119 | 108 | 100 | 113 | 106 | 100 | 98 | 105 | 100 | 73 | 81 | 100 | 113 | 121 | 75 | 95 | 94 | 100 | 125 | Percent (%) root growth of seedlings in relation to control on 9th day after sowing (Hordeum vulgare; 0.01 μM, listed as Calliterpenone diacetate): 119%; Percent (%) root growth of seedlings in relation to control on 9th day after sowing ([1]; 0.001 μM, listed as Calliterpenone diacetate): 113%; Percent (%) shoot growth of seedlings in relation to control on 9th day after sowing (Triticum aestivum; 0.001 μM): 109%; Percent (%) germination of seeds in relation to control on 9th day after sowing (Triticum aestivum; 0.01 μM): 100%; Percent (%) root growth of seedlings in relation to control on 9th day after sowing (Triticum aestivum; 0.01 μM): 114%; Percent (%) shoot growth of seedlings in relation to control on 9th day after sowing (Triticum aestivum; 0.01 μM): 106%; Percent (%) germination of seeds in relation to control on 9th day after sowing (Triticum aestivum; 0.1 μM): 90%; Percent (%) root growth of seedlings in relation to control on 9th day after sowing (Triticum aestivum; 0.1 μM): 103%; Percent (%) shoot growth of seedlings in relation to control on 9th day after sowing (Triticum aestivum; 0.1 μM): 103%; Percent (%) germination of seeds in relation to control on 9th day after sowing (Vigna radiata; 0.001 μM): 200%; Percent (%) root growth of seedlings in relation to control on 9th day after sowing (Vigna radiata; 0.001 μM): 91%; Percent (%) shoot growth of seedlings in relation to control on 9th day after sowing (Vigna radiata; 0.001 μM): 111%; Percent (%) germination of seeds in relation to control on 9th day after sowing (Vigna radiata; 0.01 μM): 100%; Percent (%) root growth of seedlings in relation to control on 9th day after sowing (Vigna radiata; 0.01 μM): 136%; Percent (%) shoot growth of seedlings in relation to control on 9th day after sowing (Vigna radiata; 0.01 μM): 115%; Percent (%) germination of seeds in relation to control on 9th day after sowing (Vigna radiata; 0.1 μM): 100%; Percent (%) root growth of seedlings in relation to control on 9th day after sowing (Vigna radiata; 0.1 μM): 93%; Percent (%) shoot growth of seedlings in relation to control on 9th day after sowing (Vigna radiata; 0.1 μM): 119%
2 | CC1(C)OCC2(CC34CCC5C(C)(C)C(=O)CCC5(C)C3CCC2C4)O1 (stereo not drawn) [Isopropylideno Calliterpenone, 16α, 17-isopropylidino 3-oxo phyllocladane] | 100 | 118 | 106 | 100 | 115 | 107 | 100 | 143 | 108 | 100 | 132 | 137 | 113 | 123 | 123 | 100 | 91 | 100 | 100 | 109 | Percent (%) root growth of seedlings in relation to control on 9th day after sowing ([1]; 0.01 μM, listed as Iso-propylideno calliterpenone): 132%; Percent (%) shoot growth of seedlings in relation to control on 9th day after sowing (Triticum aestivum; 0.001 μM): 103%; Percent (%) germination of seeds in relation to control on 9th day after sowing (Triticum aestivum; 0.01 μM): 100%; Percent (%) root growth of seedlings in relation to control on 9th day after sowing (Triticum aestivum; 0.01 μM): 107%; Percent (%) shoot growth of seedlings in relation to control on 9th day after sowing (Triticum aestivum; 0.01 μM): 103%; Percent (%) germination of seeds in relation to control on 9th day after sowing (Triticum aestivum; 0.1 μM): 100%; Percent (%) root growth of seedlings in relation to control on 9th day after sowing (Triticum aestivum; 0.1 μM): 78%; Percent (%) shoot growth of seedlings in relation to control on 9th day after sowing (Triticum aestivum; 0.1 μM): 102%; Percent (%) germination of seeds in relation to control on 9th day after sowing (Vigna radiata; 0.001 μM): 150%; Percent (%) root growth of seedlings in relation to control on 9th day after sowing (Vigna radiata; 0.001 μM): 91%; Percent (%) shoot growth of seedlings in relation to control on 9th day after sowing (Vigna radiata; 0.001 μM): 89%; Percent (%) germination of seeds in relation to control on 9th day after sowing (Vigna radiata; 0.01 μM): 100%; Percent (%) root growth of seedlings in relation to control on 9th day after sowing (Vigna radiata; 0.01 μM): 131%; Percent (%) shoot growth of seedlings in relation to control on 9th day after sowing (Vigna radiata; 0.01 μM): 153%; Percent (%) germination of seeds in relation to control on 9th day after sowing (Vigna radiata; 0.1 μM): 100%; Percent (%) root growth of seedlings in relation to control on 9th day after sowing (Vigna radiata; 0.1 μM): 124%; Percent (%) shoot growth of seedlings in relation to control on 9th day after sowing (Vigna radiata; 0.1 μM): 145%
